In publication PMC9954641, “Molecular Insight into Drug Resistance Mechanism Conferred by Aberrant PIK3CD Splice Variant in African American Prostate Cancer” (Cancers, 2023):
Read-outs that look alike come from different tables or passages of the source.

Assays:
Type in all cases: biochemical
[1] = molecular target: T1, PI3Kδ-L (full-length PI3Kδ) (Homo sapiens, UniProt O00329); assay: cell-free PI3 kinase activity assay at […] (no effect at […] on MDA PCa 2b-derived protein); also ATP-competitive binding assay ([…] less ATP bound)
T1 construct: gene PIK3CD; full-length PI3Kδ-L, V5-His tagged, Ni-NTA purified from transfected LNCaP and MDA PCa 2b cells
T1 sequence (O00329 1-1044): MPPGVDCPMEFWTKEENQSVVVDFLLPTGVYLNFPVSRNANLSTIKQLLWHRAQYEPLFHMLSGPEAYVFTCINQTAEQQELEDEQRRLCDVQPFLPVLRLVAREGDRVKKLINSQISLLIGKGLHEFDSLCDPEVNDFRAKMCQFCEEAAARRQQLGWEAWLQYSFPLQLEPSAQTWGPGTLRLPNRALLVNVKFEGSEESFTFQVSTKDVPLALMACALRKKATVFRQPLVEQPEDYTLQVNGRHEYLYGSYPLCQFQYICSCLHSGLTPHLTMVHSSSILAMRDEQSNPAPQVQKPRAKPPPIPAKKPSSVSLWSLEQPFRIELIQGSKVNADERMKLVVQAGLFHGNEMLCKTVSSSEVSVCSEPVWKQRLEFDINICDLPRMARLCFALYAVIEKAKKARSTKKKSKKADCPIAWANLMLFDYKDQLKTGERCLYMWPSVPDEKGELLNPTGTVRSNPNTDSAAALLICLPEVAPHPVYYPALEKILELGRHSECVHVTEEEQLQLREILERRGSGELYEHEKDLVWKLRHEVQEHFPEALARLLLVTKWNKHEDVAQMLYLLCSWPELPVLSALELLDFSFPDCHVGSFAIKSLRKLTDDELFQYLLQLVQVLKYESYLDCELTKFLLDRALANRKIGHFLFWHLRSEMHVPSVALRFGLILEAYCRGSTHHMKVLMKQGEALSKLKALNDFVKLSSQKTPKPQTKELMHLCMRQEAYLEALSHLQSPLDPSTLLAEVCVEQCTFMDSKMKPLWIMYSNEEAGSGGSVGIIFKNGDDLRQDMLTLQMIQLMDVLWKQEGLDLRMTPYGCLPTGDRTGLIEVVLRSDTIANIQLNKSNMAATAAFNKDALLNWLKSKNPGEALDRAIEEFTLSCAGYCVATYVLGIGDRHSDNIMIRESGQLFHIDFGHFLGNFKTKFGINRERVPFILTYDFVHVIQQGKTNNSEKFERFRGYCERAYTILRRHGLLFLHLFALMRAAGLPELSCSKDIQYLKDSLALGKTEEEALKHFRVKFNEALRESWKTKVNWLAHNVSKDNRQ

[2] = molecular target: T1, PI3Kδ-L (full-length PI3Kδ); assay: cell-free PI3 kinase activity assay at […]; also ATP-competitive binding assay ([…] less ATP bound)
[3] = molecular target: T1, PI3Kδ-L (full-length PI3Kδ); assay: as above; remark: listed apart in the source

COC[C@H]1OC(=O)c2coc3c2[C@@]1(C)C1=C(C3=O)[C@@H]2CCC(=O)[C@@]2(C)C[C@H]1OC(C)=O [Wortmannin]
cell-free PI3 kinase activity assay at 1 and 10 μM (no effect at 1 μM on MDA PCa) [1]: Idelalisib, Seletalisib, Wortmannin, and Dactolisib effectively suppressed the PI3Kδ-L activities

[O-][n+]1cccc(-c2nc3c(Cl)cccc3cc2[C@@H](Nc2ncnc3cccnc23)C(F)(F)F)c1 [Seletalisib]
cell-free PI3 kinase activity assay at 1 and 10 μM; also ATP-competitive binding [2]: Idelalisib, Seletalisib, Wortmannin, and Dactolisib effectively suppressed the PI3Kδ-L activities

Cn1c(=O)n(-c2ccc(C(C)(C)C#N)cc2)c2c3cc(-c4cnc5ccccc5c4)ccc3ncc21 [Dactolisib]
cell-free PI3 kinase activity assay at 1 and 10 μM; also ATP-competitive binding [3]: Idelalisib, Seletalisib, Wortmannin, and Dactolisib effectively suppressed the PI3Kδ-L activities
